Source: patent publication US20140308733A1, “METHOD FOR INDUCING GERMINATION OF SPORE FORMING BACTERIUM” (CALPIS CO., LTD., priority 2011, published 2014)

System: Bacillus subtilis C-3102 (FERM BP-1096)
Assay: Germination induction by ferulic acid, vanillic acid or p-coumaric acid at 300 ppm, turbidity change (Example 3)
Format: cell-based
Conditions: for turbidity (630 nm): 37° C., 150 rpm
Procedure: In each 500 mL of distilled water heated to 70° C. was added 0.3 g of ferulic acid, vanillic acid, or p-coumaric acid. After dissolving with stirring using a stirring rod with a propeller, filtration sterilization (0.45 μm filter) was conducted to prepare each 600 ppm-solution.
Next, 500 μL aliquots of bacterial suspension of Bacillus subtilis C-3102 (FERM BP-1096) prepared by a similar method as in Example 1 were mixed with 500 μL of each of the ferulic acid, vanillic acid, and p-coumaric acid solutions, and the mixtures were adjusted to 300 ppm of ferulic acid, vanillic acid, or p-coumaric acid concentration. Defining the time point of mixing as the reaction initiation (0 min), and continuing shaking (150 rpm) at 37° C., the turbidity (630 nm) was measured at 10, 20, 30, 40, 50, 60, 90, 120, and 180 min after the reaction initiation.

[1] = 0 min after reaction initiation
[2] = 10 min after reaction initiation
[3] = 20 min after reaction initiation
[4] = 30 min after reaction initiation
[5] = 40 min after reaction initiation
[6] = 50 min after reaction initiation
[7] = 60 min after reaction initiation
[8] = 90 min after reaction initiation
[9] = 120 min after reaction initiation
[10] = 180 min after reaction initiation

| Compound | germination confirmed by turbidity decrease | turbidity (630 nm) [1] | turbidity (630 nm) [2] | turbidity (630 nm) [3] | turbidity (630 nm) [4] | turbidity (630 nm) [5] | turbidity (630 nm) [6] | turbidity (630 nm) [7] | turbidity (630 nm) [8] | turbidity (630 nm) [9] | turbidity (630 nm) [10] |
| --- | --- | --- | --- | --- | --- | --- | --- | --- | --- | --- | --- |
| COc1cc(/C=C/C(=O)O)ccc1O [Ferulic acid, ferulic acid] | decreased, thereby to confirm germination | 0.545 | 0.527 | 0.513 | 0.484 | 0.466 | 0.449 | 0.413 | 0.368 | 0.313 | 0.233 |
| COc1cc(C(=O)O)ccc1O [Vanillic acid, vanillic acid] | decreased, thereby to confirm germination | 0.542 | 0.525 | 0.506 | 0.485 | 0.467 | 0.450 | 0.409 | 0.379 | 0.356 | 0.282 |
